In patent publication US6608179B1, “Antibodies, that bind to HIV-2 transmembrane glycoprotein homodimer (gp 80)” (Institut Pasteur, priority 1988, dated 2003):

Columns and labels:
HIV-2 infected CEM cells = assay: Effect of glucosidase inhibitor on production of viral proteins in HIV-2 infected cells; type: cell-based; conditions: castanospermine 1 mM, 16 hr [35S] methionine labeling, culture supernatants
Method: To confirm that gp80 was produced during the processing of envelope precursor, HIV-2 infected cells were labeled with [^35S] methionine in the absence or presence of the glucosidase inhibitor, castanospermine (Saul et al., 1983). Culture supernatants were then assayed by immunoprecipitation using an HIV-2 positive patient serum which recognizes several viral proteins.

[1] = biological target: T1, binding of mAb 1H8 to gp80 (Human immunodeficiency virus type 2 subtype A, UniProt P04577); assay: Peptide blocking of antibody signals in Western blot of HIV-2 virus pellet; conditions: 1 μg/ml of peptide p39′
T1 construct: cleaved by the cellular protease to give the extracellular glycoprotein gp125 and the transmembrane glycoprotein dimer gp80; endogenous in cells; host or cells: virus pellet from culture medium of HIV-2 infected CEM cells
T1 sequence (P04577 512-858 limits assumed): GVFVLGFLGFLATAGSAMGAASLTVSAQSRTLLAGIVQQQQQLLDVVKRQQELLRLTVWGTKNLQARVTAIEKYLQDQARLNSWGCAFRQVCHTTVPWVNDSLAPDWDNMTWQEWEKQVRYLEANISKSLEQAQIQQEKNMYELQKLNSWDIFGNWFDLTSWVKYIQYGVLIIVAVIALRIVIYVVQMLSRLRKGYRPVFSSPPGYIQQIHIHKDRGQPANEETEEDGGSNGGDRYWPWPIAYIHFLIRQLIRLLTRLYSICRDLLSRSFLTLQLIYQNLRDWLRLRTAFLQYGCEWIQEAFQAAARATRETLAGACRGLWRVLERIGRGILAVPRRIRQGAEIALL
Method: Extracts from the HIV-2 virus pellets were analyzed by Western blot assay using mAb 1H8 (section mAb) or anti-gp300 polyclonal antibodies (section S). Incubation with each antibody was carried out in the absence (lanes −) or presence (lanes +) of 10 μg of peptide p39′. The results of the autoradiography are shown.
To show the specificity of mAb 1H8 reactivity with gp80, a Western blot assay using extracts from HIV-2 virus pellet was carried out. After the transfer of proteins, nitrocellulose sheets were incubated with mAb 1H8 or anti-gp300 polyclonal antibodies in the absence or presence of 1 μg/ml of peptide p39′ (FIG. 5). […] In addition, a signal for gp36 was observed, but only after a prolonged exposure of the autoradiogram. […] These observations confirm that the reactivity of mAb 1H8 should be with the 26 amino acid residue corresponding to the amino acids 579 to 604 in the transmembrane glycoprotein of HIV-2. Consequently, a sequence corresponding to that of peptide p39′ should be present in gp80. The reactivity of anti-gp300 antibodies was not modified by peptide p39′. Therefore, these antibodies should interact with other epitopes than that corresponding to peptide 39′. […]

HIV-2 infected cells [2] = assay: Incorporation of labeled sugars into HIV-2 glycoproteins in infected cells; type: cell-based; conditions: [3H] glucosamine, fucose, mannose; data not shown
From the text: Extracts from HIV-2 infected cells metabolically labeled with [^3H] glucosamine and [^3H] fucose were immunoprecipitated using mAb 1H8 and anti-gp300 polyclonal antibodies. In accord with the previous results (FIGS. 3-6), anti-gp300 antibodies immunoprecipitated sugar labeled gp300, gp140, gp125, and gp80, whereas mAb 1H8 immunoprecipitated gp300, gp140, and gp80. All these proteins incorporated [^3H] glucosamine, whereas incorporation of [^3H] fucose mainly occurred in gp125 and gp80 (FIG. 7a). In these experiments, the labeling of gp36 with [^3H] glucosamine was observed faintly after a prolonged exposure of the autoradiogram (data not shown; similar to FIG. 1, Rey et al., 1989). The glycoprotein gp80 also can incorporate [^3H] mannose as is the case for gp300, gp140, and gp125 (data not shown).
For metabolic labeling of proteins, infected cells were incubated for 16 hours at 37° C. in MEM culture without L-methionine and serum, but supplemented with 200 μCi/ml [^35S] methionine. For metabolic labeling of glycoproteins, infected cells were incubated for 16 hours at 37° C. in MEM culture medium lacking serum and glucose but supplemented with 200 μCi/ml ^3H-Fucose or 200 μCi/ml ^3H-glucosamine.

HIV-2 infected cells [3] = conditions: in the presence of monensin; previous study (Rey et al., 1989); cited from earlier work

O[C@H]1[C@H](O)[C@@H](O)CN2CC[C@H](O)[C@H]12 [castanospermine]
production of gp80 and gp125 (HIV-2 infected CEM cells): markedly reduced
production of the major core protein (p26) (HIV-2 infected CEM cells): not significantly affected

VTAIEKYLQDQARLNSWGCAFRQVCH [peptide p39′]
effect of peptide on Western blot signals obtained with mAb 1H8 [1]: completely abolished
effect of peptide on reactivity of anti-gp300 antibodies [1]: not modified

tunicamycin
incorporation of labeled sugars in gp80 and other glycoproteins (HIV-2 infected cells [2]): completely blocked

CC[C@@]1([C@@H]2O[C@@H]([C@H]3O[C@@](O)(CO)[C@H](C)C[C@@H]3C)C[C@@H]2C)CC[C@H]([C@]2(C)CC[C@]3(C[C@H](O)[C@@H](C)[C@@H]([C@@H](C)[C@@H](OC)[C@H](C)C(=O)O)O3)O2)O1 [monensin]
135-kDa protein (gp135) in HIV-2 infected cells (HIV-2 infected cells [3]): accumulated
